Measurements published in publication PMC8943889, “Synthetic studies with the brevicidine and laterocidine lipopeptide antibiotics including analogues with enhanced properties and in vivo efficacy” (Chemical Science, 2022).
Values after ≈ are worked out from the molar mass of the structure shown. Where two headings read alike, the source gives them in different places. Positions of bridges follow the written chain, without caps; N, C: chain ends. Non-standard residues stand in square brackets, D forms with d. Residues, ends and D or L forms follow the SMILES beside them. *: point of attachment. Octanoyl(7-Me) = CC(C)CCCCCC(=O)*; dOrn = NCCC[C@@H](N)C(=O)O; Orn = NCCC[C@H](N)C(=O)O; Dap = NC[C@H](N)C(=O)O

How the values were obtained:
[1] = test system: E. coli ATCC 25922; assay: LPS antagonization assay; format: cell-based; conditions: E. coli ATCC 25922, MHB supplemented with 1 mg/mL LPS from E. coli O55:B5, 16 h 37 °C
Experimental: Figure S6. LPS antagonization assay. A blood agar plate was inoculated with a glycerol stock of E. coli ATCC 25922. The […]
inoculated agar plate was then incubated for 16 h at 37 °C. An individually grown colony was subsequently used to inoculate 3 mL […]
of TSB that was then incubated at 37 °C with shaking at 220 rpm. In parallel, the compounds to be assessed were serially diluted […]
with Mueller-Hinton broth (MHB) in polypropylene 96-well plates (50 µL in each well). Once the OD600 of the bacterial […]
suspensions reached 0.5, the bacteria were diluted with MHB (final concentration 2 × 10^5 CFU mL−1). The media were then either […]
supplemented with 1 mg/mL of LPS (lipopolysaccharides from E. coli O55:B5, Sigma-Aldrich) or added directly to the microplates […]
containing the test compounds (50 µL to each well, final volume: 100 µL). The well-plates were sealed with an adhesive membrane and after 16 h of incubation at 37°C with shaking at 220 rpm. The w ells were visually inspected for bacterial growth.
(1 picture or pasted object on this page, not shown here)

[2] = test system: K. pneumoniae JS-123; format: cell-based; conditions: JS-123, 16 h
Experimental: (§1) Minimum inhibitory concentrations (MICs) were determined by broth microdilution according to CLSI guidelines in triplicate. Blood agar plates were inoculated with glycerol stocks of E. coli ATCC 25922, E. coli MCR-1 (clinical isolate from Utrecht Medical Centre, NL), E. coli EQAS MCR-2 (clinical isolate from Wageningen University and Research, NL), K. pneumoniae ATCC 11228, K. pneumoniae ATCC 13883, K. pneumonia 2048 (clnical isolate from Vrije Universiteit Amsterdam Medical Centre, NL), K. pneumonia JS-123 (clinical isolate from Utrecht Medical […]
(§2) (clinical isolate from Rijksinstituut voor Volksgezondheid en Milieu, NL), A. baumannii MDR (clinical isolate from Vrije Universiteit Amsterdam Medical Centre, NL), P. aeruginosa ATCC 27853, P. aeruginosa PAO1, P. aeruginosa NRZ-03961 (Reference strain from Das Nationale Referenzzentrum für gramnegative Krankenhauserreger, DE), P. aeruginosa M-120 (clinical isolate from Leiden University Medical Centre, NL) and S. aureus USA300 (clinical isolate from Texas Children's Hospital, USA). E. coli 25922 MCR1 was grown on LB agar supplemented with kanamycin. The inoculated agar plates were then incubated for 16 h at 37°C . Individually grown colonies were subsequently used to inoculate 3 mL aliquots of TSB that were then incubated at 37°C with shaking at 220 rpm. In parallel, the lipopeptide antibiotics to be assessed were serially diluted with Mueller-Hinton broth (MHB) in polypropylene 96-well plates (50 µL in each well).
(§3) Once the OD600 of the bacterial suspensions reached 0.5, the bacteria were diluted with MHB (final concentration 2 × 10^5 CFU mL−1) and added to the microplates containing the test compounds (50 µL to each well, final volume: 100 µL). The well-plates were sealed with an adhesive membrane and after 16 h of incubation at 37°C with shaking at 220 rpm the wells were visually inspected for bacterial growth. MIC values reported are based on three technical replicates and defined as the lowest concentration of the compound that prevented visible growth of bacteria. […]

[3] = test system: A. baumannii ATCC 17961; format: cell-based; conditions: ATCC 17961, 16 h
Experimental: as §1, §2, §3

[4] = test system: S. aureus USA300; format: cell-based; conditions: USA300, 16 h
Experimental: as §1, §2, §3

[5] = test system: P. aeruginosa PAO1; format: cell-based; conditions: PAO1, 16 h
Experimental: as §1, §2, §3

[6] = test system: A. baumannii ATCC 17978; format: cell-based; conditions: ATCC 17978, 16 h
Experimental: as §1, §2, §3

[7] = test system: K. pneumoniae 2048; format: cell-based; conditions: 2048, 16 h
Experimental: as §1, §2, §3

[8] = test system: K. pneumoniae ATCC 13883; format: cell-based; conditions: ATCC 13883, 16 h
Experimental: as §1, §2, §3

[9] = test system: E. coli ATCC 25922; format: cell-based
Experimental: as §1, §2, §3

[10] = test system: A. baumannii 2018-006; format: cell-based; conditions: 2018-006, 16 h
Experimental: as §1, §2, §3

[11] = test system: P. aeruginosa M-120; format: cell-based; conditions: M-120, 16 h
Experimental: as §1, §2, §3

[12] = test system: P. aeruginosa NRZ-03961; format: cell-based; conditions: NRZ-03961, 16 h
Experimental: as §1, §2, §3

[13] = test system: K. pneumoniae ATCC 11228; format: cell-based; conditions: ATCC 11228, 16 h
Experimental: as §1, §2, §3

[14] = test system: P. aeruginosa ATCC 27853; format: cell-based; conditions: ATCC 27853, 16 h
Experimental: as §1, §2, §3

[15] = test system: Gram-negative bacteria; assay: MIC comparison across the bacterial panel of Table 1; format: cell-based; conditions: enantiomer versus natural product, strains of Table 1
Experimental: as §1
as §2, with “Individually grown colonies were subsequently used to inoculate 3 mL aliquots of TSB that were then incubated at 37°C with shaking at 220 rpm.” left out, “well). […]” for “well).”

[16] = In vivo tolerability study; conditions: naïve ICR mice, subcutaneous, 40 mg kg^−1 q8h over 24 h (total daily dose 120 mg kg^−1)
Experimental: (§4) In vivo tolerability and efficacy studies
(§5) Ethical Issues. Animal experiments were performed under UK Home Office Licences P89653310 (tolerability and PK) and PA67E0BAA (thigh efficacy), with local ethical committee clearance.
(§6) Animal Strain. Mice used in these studies were supplied by Charles River (Margate UK) and were specific pathogen free. The strain of mice used was ICR (also known as CD1 Mice) which is a well characterized outbred murine strain. Mice (male) were 11-15 g on receipt and were allowed to acclimatise for at least 7 days.
(§7) Animal Housing. Mice were housed in sterilised individual ventilated cages exposing the mice at all times to HEPA filtered sterile air. Mice had free access to food and water and had aspen chip bedding (changed at least once weekly). The room temperature was 22°C +/ - 1°C, with a relative humidity of 60% and maximum background noise of 56 dB. Mice were exposed to 12 h light/dark […]
Test compounds. Compound 6 was dissolved in water for injection in which it formed a clear colourless solution. Polymyxin B was dissolved in saline for injection to produce a clear colourless […]
Tolerability study. The tolerability of compound 6 was assessed in the same mouse strain used for the efficacy studies. Compound 6 was administered via subcutaneous administration route at 3 8-h […]
The mice used in the tolerability study were naïve and were not immunosuppressed or infected. […]

[17] = test system: E. coli ATCC 25922; assay: Neutropenic mouse thigh infection efficacy study; format: in vivo, mice (ICR); conditions: neutropenic mice
Experimental: as §4, §5, §6, §7
Test compounds. Compound 6 was dissolved in water for injection in which it formed a clear […]
colourless solution. […]
Compound 6 was administered via subcutaneous administration route at 3 8-h […]
The mice used in the tolerability study were naïve and were not immunosuppressed or infected.
Efficacy study. The in vivo efficacy of compound 6 was assessed in a mouse thigh abscess model where both thighs of each mouse were infected with E. coli ATCC 25922
Immunosuppression. […]
Endpoints. One h and 20.5 (planned 25) h post-infection, the clinical condition of all animals was assessed prior to humane euthanasia using pentobarbitone overdose, and the thighs were removed and weighed. Thigh samples were homogenized in 3mL ice cold sterile PBS; the homogenates were quantitatively cultured onto CLED agar and incubated at 37°C for 18 - 24 h before colonies were […]
Data analysis. The data from the culture burdens were analysed using appropriate non-parametric statistical models (Kruskal-Wallis using Conover-Inman to make all pairwise comparisons between groups) with StatsDirect software v. […]

Structure (SMILES) | decrease of antibacterial activity in the presence of LPS [1] [fold] | MIC [2] [µg/mL] | MIC [3] [µg/mL] | MIC [4] [µg/mL] | MIC [5] [µg/mL] | MIC [6] [µg/mL] | MIC [7] [µg/mL] | MIC [8] [µg/mL] | MIC ([9]; ATCC 25922, 16 h) [µg/mL] | MIC [10] [µg/mL] | MIC [11] [µg/mL] | MIC [12] [µg/mL] | MIC [13] [µg/mL] | MIC [14] [µg/mL] | MIC values higher than the natural products [15] | MIC ([9]; Ec ATCC 25922, broth microdilution (CLSI), MHB, 2 × 10^5 CFU/mL, 16 h 37 °C, visual read-out, three technical replicates) [µg/mL] | tolerability [16] | tolerability ([16]; listed as 6) | dose response of thigh burden ([17]; E. coli ATCC 25922 thigh infection, 10, 20 and 40 mg kg^−1 SC q8h) | reduction in bacterial load relative to the untreated group ([17]; thigh infection with E. coli ATCC 25922, 40 mg kg^−1 SC q8h starting 1 h post-infection, thigh burden cfu g^−1 at 20.5 h) [log]
CC[C@@H](C)[C@H]1NC(=O)[C@H](NC(=O)[C@@H](Cc2c[nH]c3ccccc23)NC(=O)[C@H](CCCN)NC(=O)CNC(=O)[C@@H](CCCN)NC(=O)[C@H](CCCN)NC(=O)[C@H](Cc2c[nH]c3ccccc23)NC(=O)[C@H](Cc2ccc(O)cc2)NC(=O)[C@H](CO)NC(=O)CCCCCC(C)C)[C@H](C)OC(=O)CNC(=O)CNC(=O)[C@@H](CC(N)=O)NC1=O (single isomer, unassigned) [ent-Lat (ent-2), ent-laterocidine] | ≥ 8 | 4 (≈ 2.49 µM) | 4 (≈ 2.49 µM) | 64 (≈ 39.9 µM) | 16 (≈ 9.97 µM) | 4 (≈ 2.49 µM) | 16 (≈ 9.97 µM) | 16 (≈ 9.97 µM) | 8 (≈ 4.98 µM) | 4 (≈ 2.49 µM) | 16 (≈ 9.97 µM) | 16 (≈ 9.97 µM) | 16 (≈ 9.97 µM) | 8 (≈ 4.98 µM) | 8- to 32 fold | – | – | – | – | –
CC[C@H](C)[C@@H]1NC(=O)[C@@H](NC(=O)[C@H](Cc2c[nH]c3ccccc23)NC(=O)[C@@H](CCCN)NC(=O)CNC(=O)[C@H](CCCN)NC(=O)[C@@H](CCCN)NC(=O)[C@@H](Cc2c[nH]c3ccccc23)NC(=O)[C@@H](Cc2ccc(O)cc2)NC(=O)[C@@H](CO)NC(=O)CCCCCC(C)C)CNC(=O)CNC(=O)CNC(=O)[C@H](CC(N)=O)NC1=O [Dap9-Lat (6), Dap9-laterocidamide] ({Octanoyl(7-Me)}-[dS][dY][dW][dOrn][Orn]G[dOrn]W[Dap]INGG; lactam 9-C) | – | 0.5 (≈ 0.314 µM) | 4 (≈ 2.52 µM) | >64 | 1 to 2 | 4 (≈ 2.52 µM) | 2 (≈ 1.26 µM) | 2 (≈ 1.26 µM) | 1 (≈ 0.629 µM) | 4 (≈ 2.52 µM) | 1 to 2 | 2 (≈ 1.26 µM) | 2 (≈ 1.26 µM) | 0.5 to 1 | – | 1.0 (≈ 0.629 µM) | well tolerated | good tolerability | clear dose response | ~5
CC[C@H](C)[C@@H]1NC(=O)[C@@H](NC(=O)[C@H](Cc2c[nH]c3ccccc23)NC(=O)[C@@H](CCCN)NC(=O)CNC(=O)[C@H](CCCN)NC(=O)[C@@H](CCCN)NC(=O)[C@@H](Cc2c[nH]c3ccccc23)NC(=O)[C@@H](Cc2ccc(O)cc2)NC(=O)[C@@H](CO)NC(=O)CCCCCC(C)C)[C@@H](C)OC(=O)CNC(=O)CNC(=O)[C@H](CC(N)=O)NC1=O [Lat (2), laterocidine] | ≥ 8 | 0.5 (≈ 0.312 µM) | 0.5 (≈ 0.312 µM) | 64 (≈ 39.9 µM) | 1 (≈ 0.623 µM) | 0.5 (≈ 0.312 µM) | 2 (≈ 1.25 µM) | 1 (≈ 0.623 µM) | 1 (≈ 0.623 µM) | 2 (≈ 1.25 µM) | 1 (≈ 0.623 µM) | 1 to 2 | 2 (≈ 1.25 µM) | ≤0.5 | – | – | – | – | – | –
